Values quoted from earlier work as cited in patent publication US20260345593A1, “ORAL FORMULATION OF N-PYRIDINYL ACETAMIDE DERIVATIVE FOR TREATING INTERSTITIAL LUNG DISEASE” (AstraZeneca AB, priority 2022, published 2026).

How the values were obtained:
[1] = 20 mg BID, preclinical and clinical studies; cited from earlier work
pH elevation = settings: 20 mg BID oral pre-treatment; cited from earlier work
[2] = test system: Axin2 expression levels in skin samples from subjects with advanced cancers; settings: 10 mg once daily, cited from earlier work
[3] = test system: patients with ILD-PF other than IPF; settings: ILD-PF other than IPF (Wells 2020); cited from earlier work
patients with IPF = settings: cited from earlier work; for rate of decline in lung function: patients with IPF (King 2014 and Richeldi 2014); for GI side effects / tolerability in IPF patients: patients with IPF
[4] = test system: ILD patients with SSc-ILD; settings: SSc-ILD (Khanna 2020); cited from earlier work

| Compound | rate of decline in lung function (patients with IPF) | GI side effects (patients with IPF) | tolerability in IPF patients (patients with IPF) | further results |
| --- | --- | --- | --- | --- |
| COCCCOc1ccnc(C[S+]([O-])c2nc3ccccc3[nH]2)c1C (racemic) [rabeprazole, (RS)-2-([4-(3-methoxypropoxy)-3-methylpyridin-2-yl]methylsulfinyl)-1H-benzo[d]imidazole] |  |  |  | safety concerns [1]: not raised any notable safety concerns; time to PD steady state of pH elevation (pH elevation): 3 days |
| Cc1cc(-c2ncc(CC(=O)Nc3ccc(-c4cnccn4)cn3)cc2C)ccn1 [Wnt974] |  |  |  | reduction in Axin2 expression levels in skin samples ([2]; subjects with advanced cancers (Rodon 2021)): approximately 90%; average Ctrough at steady state ([2]; subjects with advanced cancers): 3.7 ×IC50 |
| COC(=O)c1ccc2c(c1)NC(=O)/C2=C(\Nc1ccc(N(C)C(=O)CN2CCN(C)CC2)cc1)c1ccccc1 [nintedanib, methyl (3Z)-3-{[(4-{methyl[(4-methylpiperazin-1-yl)acetyl]amino}phenyl)amino](phenyl)methylidene}-2-oxo-2,3-dihydro-1H-indole-6-carboxylate] | slow the rate of decline in lung function | troublesome GI side effects | many patients with IPF are not able to tolerate these medications | rate of decline in lung function [3]: slow the rate of decline in lung function in these patients |
| Cc1ccc(=O)n(-c2ccccc2)c1 [pirfenidone] | slow the rate of decline in lung function | troublesome GI side effects | many patients with IPF are not able to tolerate these medications |  |
| Tocilizumab: a monoclonal antibody directed against the IL-6 receptor |  |  |  | progression of lung disease [4]: slow progression of lung disease |
